“And” between values parts separate entries of the source, which are not always exact repeats. Equal entries are not always repeated. Where two headings read alike, the source gives them in different places.
Experiments:
EP300 bromodomain = biological target: T1, EP300 bromodomain (Homo sapiens, UniProt Q09472); test: BROMOscan (bromoKdELECT), EP300; type: binding; conditions: concentrations of up to 1 μM
T1 sequence (Q09472 1049-1156 limits assumed): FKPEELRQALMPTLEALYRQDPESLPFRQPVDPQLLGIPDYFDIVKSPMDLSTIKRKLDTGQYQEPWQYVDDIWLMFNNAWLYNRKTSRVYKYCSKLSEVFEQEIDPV
Method: (§1) Figure 7 Representation of the bromoKdELECT data for (A) compound 2 and (B) compound 3. Using the BROMOscan platform, Kd values were determined for 12 phylogenetically diverse bromodomains (ATAD2B, BRD2(1), BRD4(1), BRD7, BRD9, BRPF1, CREBBP, EP300, PCAF, SMARCA4, TAF1(2), and TRIM24).

H3K18Ac in HCT116 cells = test: H3K18 acetylation in HCT116 cells (Western blot); type: cell-based, human; conditions: HCT116, 10 μM
Method: (§2) (A) HCT116 cells were exposed to 2 (10 μM) for the times shown. Western blots were then carried out for the proteins indicated. β-Actin is included as a loading control. (B) HCT116 cells were exposed to 2 (10 μM) for the times indicated followed by mRNA preparation. Q-PCR was then carried out to determine c-Myc mRNA levels compared to the 18S. Data were analyzed using one-way ANOVA. *P < 0.05, **P < 0.01, ***P < 0.001. […] (E) HCT116 cells were exposed to 2 (10 μM) or I-CBP112 for the times indicated.
(§3) overnight. Following compound treatment, cells were collected and lysed in urea buffer (9 M
(§4) urea, 75 mM Tris-HCl pH 7.5, 0.15 M β-mercaptoethanol). Proteins (50 µg) were separated
(§5) by gel electrophoresis on a 4-20% Tris-glycine gel and subjected to immunoblotting. The
(§6) 15, Santa Cruz). Secondary antibodies IRDye® 680RD Goat anti-Mouse IgG (H+L) and
(§7) IRDye® 680RD Goat anti-Rabbit IgG (H+L) were from LI-COR Biosciences. The Odyssey
(§8) infrared system (LI-COR) was used to image Western blots. […]
(§9) c-MYC For: […], c-MYC Rev: […],
(§10) 18S For: […], 18S Rev: […]. […]

CREBBP bromodomain [1] = biological target: T2, CREBBP bromodomain (Homo sapiens, UniProt Q92793); test: Isothermal titration calorimetry (ITC), CREBBP bromodomain; type: binding
Method: Figure S11. The isothermal titration calorimetry (ITC) data for the compounds shown, measured for the CREBBP bromodomain.
(§11) Isothermal Titration Calorimetry. All calorimetric experiments were performed on a MicroCal iTC200 or MicroCal PEAQ-ITC Automated (Malvern) and analyzed with the MicroCal PEAQ-ITC Analysis software (Malvern 1.1.0.1262) using a single binding site model, with the N number set to 1. The first data point was excluded from the analysis.
(§12) BRD4(1) and CREBBP bromodomains were dialyzed at 4 °C overnight in a Slide-A-Lyzer® MINI Dialysis Device (2000 MWCO; Thermo Scientific Life Technologies) into 50 mM HEPES, 150 mM NaCl containing 0.2% DMSO; pH 7.4. Proteins were centrifuged to remove […]
(§13) Protein concentration were determined by measuring
(§14) Technologies Inc.) by using the predicted protein absorbance (CREBBP: ε280: […]
(§15) dissolved as 10 to 50 mM DMSO stock solution and diluted to the required concentration using dialysis buffer. The cell was stirred at 750 rpm, reference power set to 5 μcal/sec and temperature held at 25 °C. After an initial delay of 60 sec, 20 × 2 μL injections (first injection 0.4 μL) were performed with a spacing of 150 sec. Heated dilutions were measured under the same conditions and subtracted for analysis. Small molecule solutions in the calorimetric
Target sequence in this assay (Q92793 1081-1197): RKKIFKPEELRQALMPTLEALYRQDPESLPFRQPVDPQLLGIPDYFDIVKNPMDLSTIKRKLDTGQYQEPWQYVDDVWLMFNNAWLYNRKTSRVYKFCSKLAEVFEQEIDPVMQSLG

H3K27Ac in HCT116 cells = test: H3K27 acetylation in HCT116 cells (Western blot); type: cell-based, human; conditions: HCT116, 10 μM
Method: as §2, §3, §4, §5, §6, §7, §8, §9, §10

CREBBP bromodomain [2] = biological target: T2, CREBBP bromodomain; test: BROMOscan (bromoKdELECT), CREBBP; type: binding; conditions: concentrations of up to 1 μM
Method: as §1
Target sequence in this assay (Q92793 1085-1192 limits assumed): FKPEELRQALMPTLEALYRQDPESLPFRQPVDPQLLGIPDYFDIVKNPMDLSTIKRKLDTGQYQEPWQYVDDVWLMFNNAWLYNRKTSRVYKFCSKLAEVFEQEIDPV

[3] = system: ATAD2B, BRD2(1), BRD4(1), BRD7, BRD9, BRPF1, PCAF, SMARCA4, TAF1(2), TRIM24 bromodomains; test: BROMOscan (bromoKdELECT), other bromodomains of the panel; type: binding; conditions: concentrations of up to 1 μM
Method: as §1

BRD4(1) [4] = biological target: T3, BRD4(1) (Homo sapiens, UniProt O60885); test: Isothermal titration calorimetry (ITC), BRD4(1); type: binding
Method: as §11, §12, §13, §14, §15

c-Myc in HCT116 cells = test: c-Myc protein level in HCT116 cells (Western blot); type: cell-based, human; conditions: HCT116, 10 μM, 6-24 h
BRD4(1) [5] = biological target: T3, BRD4(1); conditions: read-out: BRD4(1) Kd (NMR); ligand-observed 1H NMR, estimated Kd
Method: The reduction of the signal for the 4,5-dihydrobenzodiazepinone methyl group upon
BRD4(1) addition was used to monitor BRD4(1) binding.
The curves were derived from the integral reduction for the signal of the methyl
group located at 4,5-dihydrobenzodiazepinone headgroup upon BRD4(1) addition, detected
by means of Ligand-observed 1H NMR. E Kd values were determined using the one site-
specific binding model least square fit non-linear regression from Graphpad Prism®.
X = concentration of the ligand
Bmax = maximum binding in the same units as Y
Kd = dissociation constant in the same units as X
Ligand-Observed Proton NMR. BRD4(1) bromodomain protein in HEPES containing storage buffers were exchanged into Invitrogen 10 mM Na/K phosphate buffer (0.9% NaCl, pH 7.6) using dialysis. BRD4(1) bromodomain protein concentrations in the phosphate
Samples were prepared to a total sample volume of
160 µL phosphate buffer, with 50 µM compound from 5 mM D6-DMSO stock solutions, 10%
D2O for signal locking and the appropriate amount of protein. After loading into 3 mm
Hildenberg NMR tubes for Bruker Matchä system, samples were briefly centrifuged in a
manual benchtop rotor. Spectra were recorded on a Bruker AVIII 700 MHz spectrometer
with a TXI probe using a standard excitation-sculpting water suppression pulse sequence
For each compound, a compound only sample was recorded as a
reference, followed by samples with protein. Each spectrum was processed with Bruker
Topspinä 3.2, the data were recorded using Microsoft ExcelÒ, then the Kd value was
calculated using the “one site – specific binding; non-linear regression” function using
Graphpad PrismÒ. In Topspin, spectra were phased corrected and calibrated to the residual
DMSO peak, then local baseline corrections were performed (“absf n” function). The integral
of the studied peaks and the DMSO reference peaks were calculated in each spectra for the
determined chemical shift range (constant ranges were used for each studied compound).
Using the ratio of integrals, the integral decrease of the peak of interest with increasing […]

HIF-1α in HCT116 cells = test: HIF-1α level in HCT116 cells in hypoxia (Western blot); type: cell-based, human; conditions: HCT116, 10 μM, hypoxia (<0.1% O2)
[6] = system: c-Myc mRNA in HCT116 cells; test: c-Myc mRNA level in HCT116 cells (Q-PCR); type: cell-based, human; conditions: HCT116, 10 μM, Q-PCR vs 18S
Method: as §2, with “times indicated. […]” for “times indicated.”
Petri dishes overnight. Following compound treatment, cells were collected, and RNA was
isolated using TRIzol (Invitrogen/Life Technologies) according to the manufacturer’s
instructions. For qPCR expression analysis, cDNA was reverse transcribed from total RNA
using the Verso Kit (Thermo Scientific). qPCR was performed using the SYBR Green PCR
Master Mix Kit (Applied Biosystems) in a 7500 FAST Real-Time PCR thermocycler with
v2.0.5 software (Applied Biosystems). The following sequences of qPCR primers were used: […]
as §9
18S For: […], 18S Rev: […]. The
c-MYC mRNA fold change was calculated using a 2–ΔΔCt method and expressed in relation
to the 18S reference gene. The qPCR graph shown represents the mean ± SD of 3 biological

Compound: COc1ccc2c(c1)N(CCC/C=C/c1cccc3c1N[C@H](C)CC(=O)N3)CCC2 [Compound 2, (R,E)-6-(5-(7-Methoxy-3,4-dihydroquinolin-1(2H)-yl)pent-1-en-1-yl)-4-methyl-1,3,4,5-tetrahydro-2H-benzo[b][1,4]diazepin-2-one]
- Kd (EP300 bromodomain): 240 nM and 230 nM
- H3K18Ac level (H3K18Ac in HCT116 cells): decrease
- H3K18Ac level relative to t = 0 (H3K18Ac in HCT116 cells; 6 h): ~30 % of t = 0
- H3K18Ac level relative to t = 0 (H3K18Ac in HCT116 cells; 24 h): ~70 % of t = 0
- Kd (CREBBP bromodomain [1]): 102 ± 10 nM
- selectivity for CREBBP versus BRD4(1) (CREBBP bromodomain [1]; BRD4(1) Kd from NMR): > 100 fold
- LLE (A – B) (CREBBP bromodomain [1]; CREBBP pKd or pIC50 (A) minus cLogD pH7.4 (B)): 1.92
- CREBBP pKd (CREBBP bromodomain [1]; ITC): 7.0
- CREBBP / BRD4(1) selectivity (CREBBP bromodomain [1]; Table 2, BRD4(1) Kd from ITC and NMR): 101
- LE (CREBBP bromodomain [1]; from CREBBP pKd or pIC50): 0.33
- H3K27Ac level (H3K27Ac in HCT116 cells): decrease
- H3K27Ac level relative to t = 0 (H3K27Ac in HCT116 cells; 6 h): ~30 % of t = 0
- H3K27Ac level relative to t = 0 (H3K27Ac in HCT116 cells; 24 h): ~70 % of t = 0
- Kd (CREBBP bromodomain [2]): 200 nM
- binding to the other bromodomains of the panel (BROMOscan) [3]: no binding
- BRD4(1) Kd (ITC) (BRD4(1) [4]): n.b. and n.b.^c
- binding to BRD4(1) by ITC (in words) (BRD4(1) [4]): unable to detect binding
- BRD4(1) Kd (ITC) (BRD4(1) [4]; csv supplement): n.b.
- c-Myc expression (c-Myc in HCT116 cells): reduces expression of c-Myc
- Kd (BRD4(1) [5]): 10300 ± 1890 nM
- HIF-1α level in hypoxia (HIF-1α in HCT116 cells): stabilization of HIF-1α above the level observed in hypoxia alone
- c-Myc mRNA level [6]: effects were also observed on c-Myc mRNA
